From US6923921B2, “Fluorinated polyether compositions” (3M Innovative Properties Company, priority 2002, dated 2005)

Assay: Toxicokinetic study with HFPO alcohols: oral absorption and serum elimination (total fluorine in serum)
Set-up: species or system Male Sprague-Dawley rats
Conditions: rat, in vivo, 30 mg/kg
Description: The objective of this study was to assess the oral absorption and serum elimination half-life of six hexafluoropropylene oxide (HFPO)-alcohol oligomers (CF3CF2CF2O(CF(CF3)CF2O)xCF(CF3)C(O)N(H)CH2CH2OH), or mixtures thereof, in rats. Male Sprague-Dawley rats (N=4 to 6 rats per dose group) received a single 30 mg/kg dose of the various HFPO alcohol oligomers in propylene glycol by oral gavage at a volume of 5 ml/kg. Necropsies were performed on day one and day four post dose.
Serum samples obtained at necropsy were analyzed for total fluorine based on published methods (1) using an Antek 9000F Fluoride Analysis System. The method was based on oxy-pyrohydrolysis at 1050° C., whereby the C—F bond is broken and the resulting product, hydrogen fluoride (HF), is trapped in a buffer solution and measured with the fluoride ion electrode. The total fluorine levels obtained by this method reflect the total organic fluorine in the serum samples and are reported in Table 2.

Substance | Amount of Total F ppm (SD) in serum, Day 1 Post-Dose | Amount of Total F ppm (SD) in serum, Day 4 Post-Dose | apparent half-life serum fluorine levels
CF3CF2CF2O(CF(CF3)CF2O)xCF(CF3)C(O)N(H)CH2CH2OH [Example 2] | 0.15 (0.00) ppm | 0.15 (0.00) ppm | 
CF3CF2CF2O(CF(CF3)CF2O)xCF(CF3)C(O)N(H)CH2CH2OH [Example 3] | 0.15 (0.00) ppm | 0.15 (0.00) ppm | 
CF3CF2CF2O(CF(CF3)CF2O)xCF(CF3)C(O)N(H)CH2CH2OH [Example C1] | 7.55 (1.34) ppm | 3.90 (0.00) ppm | approximately four
